This is an account of results in patent US7323570B2, “Farnesyltransferase inhibitors” (Abbott Laboratories, priority 2000, dated 2008).

In the experiment the target is T1, farnesyltransferase (Rattus norvegicus, UniProt Q02293+Q04631).
T1 construct: The enzyme can be purified according to Cell, 62: 81-88 (1990), utilizing steps one, two, and three; from tissue; host or cells: rat brain
In words: Inhibition of farnesyltransferase (3H-farnesyldiphosphate / H-Ras filter assay). The settings on record: 37° C., 30 minutes; for inhibition at 0.1 µM: test compound 10^−7M. In kind it is biochemical. The source says:
The ability of the compounds of the present invention to inhibit farnesyltransferase can be measured according to the method described in J. Biol. Chem., 266: 14603 (1991) or J. Biol. Chem., 270:660-664 (1995). Procedures for determination of the inhibition of farnesylation of the oncogene protein Ras are described in J. Biol. Chem., 266:15575-15578 (1991) and U.S. Pat. No. 5,245,061. Inhibition of rat brain farnesyltransferase can also be measured in vitro using an Amersham Life Science commercial scintillation proximity assay kit and substituting a biotin-K Ras B fragment (0.1 μM final concentration) for the biotin-lamin substrate provided by Amersham. The enzyme can be purified according to Cell, 62: 81-88 (1990), utilizing steps one, two, and three. […] The percent inhibition of the farnesylation caused by the compounds of the present invention (at 10^−6 M) compared to an uninhibited control sample can be evaluated in the same Amersham test system.
The mixture was brought to 37° C., treated with enzyme, incubated for 30 minutes, treated with 1 M HCl/ethanol (1 mL) to stop the reaction, stirred for 15 minutes at room temperature, diluted with ethanol (2 mL), filtered through a 2.5 cm glass microfiber filter (Whatman) with ethanol rinses (4×2 mL). The glass filter was transferred to a scintillation vial and treated with scintillation fluid (5 mL). The radioisotope retained on the glass fiber filter was counted and reflected the activity of the enzyme.

SMILES strings stand for the structures.

T1 sequence (Q02293 whole entry, one chain of several): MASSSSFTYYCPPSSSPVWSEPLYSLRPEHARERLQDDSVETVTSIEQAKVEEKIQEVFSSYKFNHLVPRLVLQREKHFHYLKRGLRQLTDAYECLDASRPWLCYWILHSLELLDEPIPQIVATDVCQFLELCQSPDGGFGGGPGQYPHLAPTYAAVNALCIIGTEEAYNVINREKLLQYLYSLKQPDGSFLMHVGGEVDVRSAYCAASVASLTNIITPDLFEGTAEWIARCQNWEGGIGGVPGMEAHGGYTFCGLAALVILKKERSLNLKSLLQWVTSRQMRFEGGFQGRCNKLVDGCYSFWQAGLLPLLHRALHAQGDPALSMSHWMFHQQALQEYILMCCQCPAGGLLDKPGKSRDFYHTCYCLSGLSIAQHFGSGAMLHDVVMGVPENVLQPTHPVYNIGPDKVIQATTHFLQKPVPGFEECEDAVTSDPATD

As for `Cn1cncc1C(OCc1c(-c2cccc(Cl)c2)cc(C#N)c(=O)n1C)c1ccc(Cl)cc1` (stereo not drawn) [Example 43, 5-(3-chlorophenyl)-6-(((4-chlorophenyl)(1-methyl-1H-imidazol-5-yl)methoxy)methyl)-1-methyl-2-oxo-1,2-dihydro-3-pyridinecarbonitrile], the inhibition at 0.1 µM was more than 81%.
Same read-out and setting: as for `Cn1cncc1C(OCc1ccc(Cl)cc1-c1ccccc1)c1ccc(C#N)cc1` (stereo not drawn) [Example 2, 4-(((5-chloro(1,1′-biphenyl)-2-yl)methoxy)(1-methyl-1H-imidazol-5-yl)methyl)benzonitrile], the figure is more than 66%.
The compound `COc1cccc(-c2cc(C#N)ccc2OCC(F)(c2ccc(C#N)cc2)c2cncn2C)c1` (stereo not drawn) [Example 58, 6-(2-(4-cyanophenyl)-2-fluoro-2-(1-methyl-1H-imidazol-5-yl)ethoxy)-3′-methoxy-1,1′-biphenyl-3-carbonitrile] showed an inhibition at 0.01 µM (test compound 10^−8M) of 96%.
